Source: US9271960B2, “Tetrahydrocarbazoles as active agents for inhibiting VEGF production by translational control” (PTC Therapeutics, Inc., priority 2004, dated 2016)
Where two headings read alike, the source gives them in different places.

Test system: VEGF
Assay: Hypoxia-inducible endogenous VEGF expression ELISA in HeLa cells
Format: cell-based
Conditions: Homo sapiens, HeLa, VEGF protein by ELISA
Summary of the method: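 HeLa cells held 24–48 h in hypoxia (1% O2) with a concentration series of compound; VEGF secreted into media quantified by ELISA against a standard curve. Parallel Cell Titer Glo viability under identical conditions gives CC50; EC50 from percent-inhibition curves.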

[1] = compounds 1-155, hypoxic conditions (1% O2), read-out: ELISA Activity
[2] = purchased compounds 156-188, hypoxic conditions, read-out: ELISA Activity
[3] = purchased compounds 156-188, hypoxic conditions, read-out: ELISA EC50

SMILES | EC50 [1] [nM] | EC50 [2] [nM] | EC50 [3] [nM]
O=C1c2sccc2CN1C1CCCc2c1[nH]c1ccc(Cl)cc21 (centres unmarked) [Compound 148, 5-(6-Chloro-2,3,4,9-tetrahydro-1H-carbazol-1-yl)-4,5-dihydro-thieno[2,3-c]pyrrol-6-one] | < 10 |  | 
O/N=C/c1ccn(C2CCCc3c2[nH]c2ccc(Br)cc32)c1 (centres unmarked) [Compound 149, 1-(6-Bromo-2,3,4,9-tetrahydro-1H-carbazol-1-yl)-1H-pyrrole-3-carbaldehyde oxime] | 40 to 200 |  | 
O=C(NC1CCCc2c1[nH]c1ccc(Br)cc21)c1ccno1 (centres unmarked) [Compound 150, isoxazole-5-carboxylic acid (6-bromo-2,3,4,9-tetrahydro-1H-carbazol-1-yl)-amide] | 10 to 40 |  | 
Cc1cc(C(=O)NC2CCCc3c2[nH]c2ccc(Br)cc32)no1 (centres unmarked) [Compound 151, 5-Methyl-isoxazole-3-carboxylic acid (6-bromo-2,3,4,9-tetrahydro-1H-carbazol-1-yl)-amide] | 10 to 40 |  | 
O=C(NC1CCCc2c1[nH]c1ccc(Br)cc21)c1ccoc1 (centres unmarked) [Compound 152, Furan-3-carboxylic acid (6-bromo-2,3,4,9-tetrahydro-1H-carbazol-1-yl)-amide] | 200 to 1000 |  | 
O=C(NC1CCCc2c1[nH]c1ccc(Br)cc21)c1ccsc1 (centres unmarked) [Compound 153, Thiophene-3-carboxylic acid (6-bromo-2,3,4,9-tetrahydro-1H-carbazol-1-yl)-amide] | 40 to 200 |  | 
O=C(NC1CCCc2c1[nH]c1ccc(Br)cc21)c1ccc(Cl)s1 (centres unmarked) [Compound 154, 5-Chloro-thiophene-2-carboxylic acid (6-bromo-2,3,4,9-tetrahydro-1H-carbazol-1-yl)-amide] | < 10 |  | 
Cn1cccc1C(=O)NC1CCCc2c1[nH]c1ccc(Br)cc21 (centres unmarked) [Compound 155, 1-Methyl-1H-pyrrole-2-carboxylic acid (6-bromo-2,3,4,9-tetrahydro-1H-carbazol-1-yl)-amide] | 10 to 40 |  | 
Brc1ccc2[nH]c3c(c2c1)CCCC3n1cccc1 (centres unmarked) [Compound 156, 6-Bromo-1-pyrrol-1-yl-2,3,4,9-tetrahydro-1H-carbazole] |  | < 10 | 10
O=[N+]([O-])c1ccc2[nH]c3c(c2c1)CCCC3NC1CCC(c2ccccc2)CC1 (centres unmarked) [Compound 157] |  | 10 to 40 | 14.9
Cc1ccc2[nH]c3c(c2c1)CCCC3NCC12CC3CC(CC(C3)C1)C2 (centres unmarked) [Compound 159, Adamantan-1-ylmethyl-(6-methyl-2,3,4,9-tetrahydro-1H-carbazol-1-yl)-amine] |  | 200 to 1000 | 360
Cc1ccc2[nH]c3c(c2c1)CCCC3NCc1ccc(Cl)cc1 (centres unmarked) [Compound 160, (4-Chloro-benzyl)-(6-methyl-2,3,4,9-tetrahydro-1H-carbazol-1-yl)-amine] |  | 200 to 1000 | 420
Cc1ccc2[nH]c3c(c2c1)CCCC3NC1CCCCC1 (centres unmarked) [Compound 161, Cyclohexyl-(6-methyl-2,3,4,9-tetrahydro-1H-carbazol-1-yl)-amine] |  | 200 to 1000 | 670
Cc1ccc2c(c1)c1c3n2CCN(N=O)C3CCC1 (centres unmarked) [Compound 162, 8-Methyl-3-nitroso-2,3,3a,4,5,6-hexahydro-1H-pyrazino[3,2,1-jk]carbazole] |  | 200 to 1000 | 890
c1ccc(CN2CCn3c4c(c5ccccc53)CCCC42)cc1 (centres unmarked) [Compound 163, 3-Benzyl2,3,3a,4,5,6-hexahydro-1H-pyrazino[3,2,1-jk]carbazole] |  | > 1000 | 1790
S=C(Nc1ccccc1)N1CCn2c3c(c4cc(C5CCCCC5)ccc42)CCCC31 (centres unmarked) [Compound 164, 8-Cyclohexyl-1,2,3a,4,5,6-hexahydro-pyrazino[3,2,1-jk]carbazole-3-carbothioic acid phenylamide] |  | > 1000 | 2170
COC(CNC1CCCc2c1[nH]c1ccc(C)cc21)OC (centres unmarked) [Compound 165, (2,2-Dimethoxy-ethyl)-(6-methyl-2,3,4,9-tetrahydro-1H-carbazol-1-yl)-amine] |  | > 1000 | 5200
